Structures are written as SMILES.

A word on the EC50: it is the concentration that produces a half-maximal response. Higher therefore signals a need for much substance.

For the assay, the target named is T1, purified pig brain tubulin (Sus scrofa, UniProt P02550+P02554).
T1 construct: native alpha/beta-tubulin purified from pig brain
The experiment in a line: tubulin polymerization, absorbance […] nm. Format: biochemical.

T1 sequence (P02554 whole entry): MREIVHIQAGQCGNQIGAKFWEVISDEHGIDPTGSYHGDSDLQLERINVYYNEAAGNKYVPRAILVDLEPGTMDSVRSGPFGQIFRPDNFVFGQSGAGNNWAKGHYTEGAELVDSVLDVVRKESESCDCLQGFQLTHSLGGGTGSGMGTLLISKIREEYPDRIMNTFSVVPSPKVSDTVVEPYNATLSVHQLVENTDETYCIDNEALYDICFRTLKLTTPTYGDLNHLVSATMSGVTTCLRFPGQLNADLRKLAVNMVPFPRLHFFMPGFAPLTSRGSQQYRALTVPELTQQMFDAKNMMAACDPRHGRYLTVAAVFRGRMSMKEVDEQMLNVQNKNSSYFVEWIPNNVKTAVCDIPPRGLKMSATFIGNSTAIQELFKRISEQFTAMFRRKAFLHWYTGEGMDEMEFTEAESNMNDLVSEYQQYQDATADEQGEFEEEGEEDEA
T1 sequence (P02550 whole entry): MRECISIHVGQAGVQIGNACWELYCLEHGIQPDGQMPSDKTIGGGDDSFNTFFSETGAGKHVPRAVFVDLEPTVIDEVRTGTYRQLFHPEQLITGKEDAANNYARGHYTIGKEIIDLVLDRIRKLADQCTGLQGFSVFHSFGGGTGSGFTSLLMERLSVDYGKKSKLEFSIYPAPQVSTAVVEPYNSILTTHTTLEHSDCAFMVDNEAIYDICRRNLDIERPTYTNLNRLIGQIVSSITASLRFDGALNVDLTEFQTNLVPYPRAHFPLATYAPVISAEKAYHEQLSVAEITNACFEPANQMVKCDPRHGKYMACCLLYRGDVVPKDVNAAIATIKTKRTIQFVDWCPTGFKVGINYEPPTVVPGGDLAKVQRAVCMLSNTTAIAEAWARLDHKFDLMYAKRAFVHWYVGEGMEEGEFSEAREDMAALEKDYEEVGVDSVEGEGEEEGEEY

Consider `C=C(C)[C@H]1Cc2c(ccc3c2O[C@@H]2COc4cc(OC)c(OC)cc4[C@@H]2C3=O)O1` [Rot, rotenone], for which the EC50 was 0.64 µM.

The values are drawn from paper PMC10812665, “Definition of the Neurotoxicity-Associated Metabolic Signature Triggered by Berberine and Other Respiratory Chain Inhibitors” (Antioxidants, 2023).
